# Test results as given in patent US11813305B2, “Endoplasmic reticulum stress as a predictive tool in cancer therapy and a combination therapy for the treatment of cancer” (IMMUNE SYSTEM KEY LTD., priority 2016, dated 2023).
# Square brackets hold non-standard residues; d marks the D form. Peptide text beside a SMILES is read from it.
# Experiment: Safety and tolerability (adverse events, DLT, MTD), phase I study
# Type: in vivo, human
# Excerpt: The present clinical study is a formal open label phase I dose escalation study. The primary objective was to determine the maximum tolerated dose (MTD) and safety profile of dTCApFs. Assessments included drug exposure, adverse events (AEs; graded according to the Common Terminology Criteria for Adverse Events (CTCAE), and characterization of dose-limiting toxicities (DLTs). Other objectives included assessment of serum levels of angiogenic factors after dTCApFs administration, pharmacokinetics (PK) and pharmacodynamics (PD) analyses, as well as assessment of receptor staining and tumor response. […]
# Subjects with evaluable or measurable disease are assessed according to the response evaluation criteria in solid tumors (RECIST) version 1.1 every 2 cycles, where a cycle is defined as 4 weeks of treatment with three administrations per week. Tumor lesion measurements and changes from baseline are summarized by cycle and dose cohort.
structure (smiles),measurement,setting,value
"CC(C)C[C@@H](NC(=O)[C@H](NC(=O)[C@@H](CO)NC(=O)[C@H]1CCCN1C(=O)[C@@H](CC(C)C)NC(=O)[C@@H](Cc1ccccc1)NC(=O)[C@@H](Cc1ccccc1)NC(=O)[C@H](NC(=O)[C@@H](Cc1c[nH]c2ccccc12)NC(=O)[C@H](N)Cc1c[nH]c2ccccc12)[C@H](C)O)[C@H](C)O)C(=O)N[C@H](Cc1c[nH]c2ccccc12)C(=O)N[C@H](CCC(=O)O)C(=O)N[C@H](CCCNC(=N)N)C(=O)N[C@H](CCCCN)C(=O)O [dTCApFs, Trp Trp Thr Phe Phe Leu Pro Ser Thr Leu Trp Glu Arg Lys] (H-[dW][dW][dT][dF][dF][dL][dP][dS][dT][dL][dW][dE][dR][dK]-OH; N-terminus and C-terminus assumed)",Adverse event Grade 1: Abdominal pain,"6 mg/m^2, n = 3",0
same,Adverse event Grade 1: Anemia,"6 mg/m^2, n = 3",3
same,Adverse event Grade 1: Bowel obstruction,"6 mg/m^2, n = 3",1
same,Adverse event Grade 1: Dehydration,"6 mg/m^2, n = 3",0
same,Adverse event Grade 1: Diarrhea,"6 mg/m^2, n = 3",0
same,Adverse event Grade 1: Fatigue,"6 mg/m^2, n = 3",0
same,Adverse event Grade 1: GI hemorrhage,"6 mg/m^2, n = 3",1
same,Adverse event Grade 1: Hypertension,"6 mg/m^2, n = 3",3
same,Adverse event Grade 1: Increased INR,"6 mg/m^2, n = 3",0
same,Adverse event Grade 1: Neuropathy,"6 mg/m^2, n = 3",0
same,Adverse event Grade 1: Vomiting,"6 mg/m^2, n = 3",2
same,Adverse event Grade 2: ALT increase,"6 mg/m^2, n = 3",0
same,Adverse event Grade 2: AST increase,"6 mg/m^2, n = 3",0
same,Adverse event Grade 2: Bilirubin increase,"6 mg/m^2, n = 3",0
same,Adverse event Grade 2: Cough,"6 mg/m^2, n = 3",0
same,Adverse event Grade 2: Liver dysfunction,"6 mg/m^2, n = 3",0
same,"Adverse event Grade 2: Pain, leg","6 mg/m^2, n = 3",0
same,"Adverse event Grade 2: Pain, upper back","6 mg/m^2, n = 3",0
same,Adverse event Grade 2: Pruritus,"6 mg/m^2, n = 3",0
same,Adverse event Grade 2: Urinary tract infection,"6 mg/m^2, n = 3",0
same,Adverse event Grade 2: Urticaria,"6 mg/m^2, n = 3",0
same,Adverse event Grade 3: Bilirubin increase,"6 mg/m^2, n = 3",0
same,Adverse event Grade 3: Bowel obstruction,"6 mg/m^2, n = 3",1
same,Adverse event Grade 3: Diarrhea,"6 mg/m^2, n = 3",0
same,Adverse event Grade 3: GI hemorrhage,"6 mg/m^2, n = 3",1
same,Adverse event Grade 3: Hypertension,"6 mg/m^2, n = 3",2
same,Adverse event Grade 3: Increased INR,"6 mg/m^2, n = 3",0
same,Adverse event Grade 4: Vomiting,"6 mg/m^2, n = 3",0
same,Adverse event Grade 1: Abdominal pain,"12 mg/m^2, n = 3",1
same,Adverse event Grade 1: Anemia,"12 mg/m^2, n = 3",0
same,Adverse event Grade 1: Bowel obstruction,"12 mg/m^2, n = 3",0
same,Adverse event Grade 1: Dehydration,"12 mg/m^2, n = 3",0
same,Adverse event Grade 1: Diarrhea,"12 mg/m^2, n = 3",2
same,Adverse event Grade 1: Fatigue,"12 mg/m^2, n = 3",1
same,Adverse event Grade 1: GI hemorrhage,"12 mg/m^2, n = 3",0
same,Adverse event Grade 1: Hypertension,"12 mg/m^2, n = 3",1
same,Adverse event Grade 1: Increased INR,"12 mg/m^2, n = 3",0
same,Adverse event Grade 1: Neuropathy,"12 mg/m^2, n = 3",1
same,Adverse event Grade 1: Vomiting,"12 mg/m^2, n = 3",0
same,Adverse event Grade 2: ALT increase,"12 mg/m^2, n = 3",0
same,Adverse event Grade 2: AST increase,"12 mg/m^2, n = 3",0
same,Adverse event Grade 2: Bilirubin increase,"12 mg/m^2, n = 3",0
same,Adverse event Grade 2: Cough,"12 mg/m^2, n = 3",1
same,Adverse event Grade 2: Liver dysfunction,"12 mg/m^2, n = 3",0
same,"Adverse event Grade 2: Pain, leg","12 mg/m^2, n = 3",2
same,"Adverse event Grade 2: Pain, upper back","12 mg/m^2, n = 3",0
same,Adverse event Grade 2: Pruritus,"12 mg/m^2, n = 3",0
same,Adverse event Grade 2: Urinary tract infection,"12 mg/m^2, n = 3",1
same,Adverse event Grade 2: Urticaria,"12 mg/m^2, n = 3",0
same,Adverse event Grade 3: Bilirubin increase,"12 mg/m^2, n = 3",0
same,Adverse event Grade 3: Bowel obstruction,"12 mg/m^2, n = 3",0
same,Adverse event Grade 3: Diarrhea,"12 mg/m^2, n = 3",1
same,Adverse event Grade 3: GI hemorrhage,"12 mg/m^2, n = 3",0
same,Adverse event Grade 3: Hypertension,"12 mg/m^2, n = 3",1
same,Adverse event Grade 3: Increased INR,"12 mg/m^2, n = 3",0
same,Adverse event Grade 4: Vomiting,"12 mg/m^2, n = 3",0
same,Adverse event Grade 1: Abdominal pain,"24 mg/m^2, n = 3",2
same,Adverse event Grade 1: Anemia,"24 mg/m^2, n = 3",0
same,Adverse event Grade 1: Bowel obstruction,"24 mg/m^2, n = 3",0
same,Adverse event Grade 1: Dehydration,"24 mg/m^2, n = 3",0
same,Adverse event Grade 1: Diarrhea,"24 mg/m^2, n = 3",0
same,Adverse event Grade 1: Fatigue,"24 mg/m^2, n = 3",0
same,Adverse event Grade 1: GI hemorrhage,"24 mg/m^2, n = 3",0
same,Adverse event Grade 1: Hypertension,"24 mg/m^2, n = 3",1
same,Adverse event Grade 1: Increased INR,"24 mg/m^2, n = 3",0
same,Adverse event Grade 1: Neuropathy,"24 mg/m^2, n = 3",1
same,Adverse event Grade 1: Vomiting,"24 mg/m^2, n = 3",0
same,Adverse event Grade 2: ALT increase,"24 mg/m^2, n = 3",0
same,Adverse event Grade 2: AST increase,"24 mg/m^2, n = 3",0
same,Adverse event Grade 2: Bilirubin increase,"24 mg/m^2, n = 3",0
same,Adverse event Grade 2: Cough,"24 mg/m^2, n = 3",0
same,Adverse event Grade 2: Liver dysfunction,"24 mg/m^2, n = 3",0
same,"Adverse event Grade 2: Pain, leg","24 mg/m^2, n = 3",0
same,"Adverse event Grade 2: Pain, upper back","24 mg/m^2, n = 3",0
same,Adverse event Grade 2: Pruritus,"24 mg/m^2, n = 3",0
same,Adverse event Grade 2: Urinary tract infection,"24 mg/m^2, n = 3",0
same,Adverse event Grade 2: Urticaria,"24 mg/m^2, n = 3",0
same,Adverse event Grade 3: Bilirubin increase,"24 mg/m^2, n = 3",0
same,Adverse event Grade 3: Bowel obstruction,"24 mg/m^2, n = 3",0
same,Adverse event Grade 3: Diarrhea,"24 mg/m^2, n = 3",0
same,Adverse event Grade 3: GI hemorrhage,"24 mg/m^2, n = 3",0
same,Adverse event Grade 3: Hypertension,"24 mg/m^2, n = 3",1
same,Adverse event Grade 3: Increased INR,"24 mg/m^2, n = 3",0
same,Adverse event Grade 4: Vomiting,"24 mg/m^2, n = 3",0
same,Adverse event Grade 1: Abdominal pain,"48 mg/m^2, n = 3",0
same,Adverse event Grade 1: Anemia,"48 mg/m^2, n = 3",0
same,Adverse event Grade 1: Bowel obstruction,"48 mg/m^2, n = 3",0
same,Adverse event Grade 1: Dehydration,"48 mg/m^2, n = 3",0
same,Adverse event Grade 1: Diarrhea,"48 mg/m^2, n = 3",0
same,Adverse event Grade 1: Fatigue,"48 mg/m^2, n = 3",1
same,Adverse event Grade 1: GI hemorrhage,"48 mg/m^2, n = 3",0
same,Adverse event Grade 1: Hypertension,"48 mg/m^2, n = 3",0
same,Adverse event Grade 1: Increased INR,"48 mg/m^2, n = 3",1
same,Adverse event Grade 1: Neuropathy,"48 mg/m^2, n = 3",0
same,Adverse event Grade 1: Vomiting,"48 mg/m^2, n = 3",0
same,Adverse event Grade 2: ALT increase,"48 mg/m^2, n = 3",0
same,Adverse event Grade 2: AST increase,"48 mg/m^2, n = 3",0
same,Adverse event Grade 2: Bilirubin increase,"48 mg/m^2, n = 3",1
same,Adverse event Grade 2: Cough,"48 mg/m^2, n = 3",0
same,Adverse event Grade 2: Liver dysfunction,"48 mg/m^2, n = 3",0
same,"Adverse event Grade 2: Pain, leg","48 mg/m^2, n = 3",0
same,"Adverse event Grade 2: Pain, upper back","48 mg/m^2, n = 3",0
same,Adverse event Grade 2: Pruritus,"48 mg/m^2, n = 3",0
same,Adverse event Grade 2: Urinary tract infection,"48 mg/m^2, n = 3",0
same,Adverse event Grade 2: Urticaria,"48 mg/m^2, n = 3",0
same,Adverse event Grade 3: Bilirubin increase,"48 mg/m^2, n = 3",1
same,Adverse event Grade 3: Bowel obstruction,"48 mg/m^2, n = 3",0
same,Adverse event Grade 3: Diarrhea,"48 mg/m^2, n = 3",0
same,Adverse event Grade 3: GI hemorrhage,"48 mg/m^2, n = 3",0
same,Adverse event Grade 3: Hypertension,"48 mg/m^2, n = 3",0
same,Adverse event Grade 3: Increased INR,"48 mg/m^2, n = 3",1
same,Adverse event Grade 4: Vomiting,"48 mg/m^2, n = 3",0
same,Adverse event Grade 1: Abdominal pain,"96 mg/m^2, n = 5",0
same,Adverse event Grade 1: Anemia,"96 mg/m^2, n = 5",0
same,Adverse event Grade 1: Bowel obstruction,"96 mg/m^2, n = 5",0
same,Adverse event Grade 1: Dehydration,"96 mg/m^2, n = 5",1
same,Adverse event Grade 1: Diarrhea,"96 mg/m^2, n = 5",2
same,Adverse event Grade 1: Fatigue,"96 mg/m^2, n = 5",0
same,Adverse event Grade 1: GI hemorrhage,"96 mg/m^2, n = 5",0
same,Adverse event Grade 1: Hypertension,"96 mg/m^2, n = 5",1
same,Adverse event Grade 1: Increased INR,"96 mg/m^2, n = 5",0
same,Adverse event Grade 1: Neuropathy,"96 mg/m^2, n = 5",0
same,Adverse event Grade 1: Vomiting,"96 mg/m^2, n = 5",1
same,Adverse event Grade 2: ALT increase,"96 mg/m^2, n = 5",1
same,Adverse event Grade 2: AST increase,"96 mg/m^2, n = 5",1
same,Adverse event Grade 2: Bilirubin increase,"96 mg/m^2, n = 5",1
same,Adverse event Grade 2: Cough,"96 mg/m^2, n = 5",0
same,Adverse event Grade 2: Liver dysfunction,"96 mg/m^2, n = 5",1
same,"Adverse event Grade 2: Pain, leg","96 mg/m^2, n = 5",0
same,"Adverse event Grade 2: Pain, upper back","96 mg/m^2, n = 5",1
same,Adverse event Grade 2: Pruritus,"96 mg/m^2, n = 5",1
same,Adverse event Grade 2: Urinary tract infection,"96 mg/m^2, n = 5",0
same,Adverse event Grade 2: Urticaria,"96 mg/m^2, n = 5",2
same,Adverse event Grade 3: Bilirubin increase,"96 mg/m^2, n = 5",1
same,Adverse event Grade 3: Bowel obstruction,"96 mg/m^2, n = 5",0
same,Adverse event Grade 3: Diarrhea,"96 mg/m^2, n = 5",1
same,Adverse event Grade 3: GI hemorrhage,"96 mg/m^2, n = 5",0
same,Adverse event Grade 3: Hypertension,"96 mg/m^2, n = 5",2
same,Adverse event Grade 3: Increased INR,"96 mg/m^2, n = 5",0
same,Adverse event Grade 4: Vomiting,"96 mg/m^2, n = 5",1
same,relation of adverse events (AEs) to study drug,AEs of Table 4,None were related to study drug
same,"grade 4 AE vomiting, number of patients",all dose groups,1
same,dose-limiting toxicities (DLTs),any patient up to cohort 5 (6-96 mg/m^2),No dose-limiting toxicities (DLTs) were observed
same,MTD,"doses of 6, 12, 24, 48, and 96 mg/m^2 i.v., 3 times/week",not reached
same,tolerability of treatment,"overall, 17 patients",well-tolerated with no cumulative toxicity
